Assay results from PubChem BioAssay (NCI).
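Dose response: 5 concentrations. Exposure: 48 h. Format: 96-well plates. Endpoint: linear interpolation; highest concentration if not reached. GI50: concentration for 50% inhibition of growth. Definition used: TGI = concentration required for complete inhibition of growth.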

Legend:
Experiment in all cases: DTP human tumour cell line panel, 48 h
DU-145 prostate = tested on: DU-145 prostate
MDA-MB-435 = tested on: MDA-MB-435
MDA-MB-231 breast = tested on: MDA-MB-231 breast
T-47D breast = tested on: T-47D breast
MCF7 breast = tested on: MCF7 breast
LXFL 529 NSCLC = tested on: LXFL 529 NSCLC
XF 498 CNS = tested on: XF 498 CNS
SNB-78 CNS = tested on: SNB-78 CNS
DMS 114 small cell lung = tested on: DMS 114 small cell lung
DMS 273 small cell lung = tested on: DMS 273 small cell lung

With `COc1cc2c(c(Br)c1N)-c1cc(Br)c(N)cc1C2=O` the GI50 (DU-145 prostate) was 59.8 µM, the TGI (DU-145 prostate) was > 100 µM and the GI50 (MDA-MB-435) was > 100 µM. The TGI (MDA-MB-435) was > 100 µM, the GI50 (MDA-MB-231 breast) was 3.07 µM and the TGI (MDA-MB-231 breast) was > 81 µM. For the same compound, the GI50 (T-47D breast) was 0.307 µM, the TGI (T-47D breast) was > 100 µM and the GI50 (MCF7 breast) was 0.131 µM. For the same compound, the TGI (MCF7 breast) was > 100 µM.
With `Cc1ccc(C)c(NC(=O)CCC(=O)CC(=O)C(C)(C)C)c1` the TGI (LXFL 529 NSCLC) was > 100 µM, the TGI (XF 498 CNS) was > 100 µM and the TGI (SNB-78 CNS) was > 100 µM. The TGI (DMS 114 small cell lung) was > 100 µM and the TGI (DMS 273 small cell lung) was > 100 µM.
With `O=C(Nc1ccc(Cl)cc1)C(=O)C1=C(O)c2ccccc2OC1` the TGI (DU-145 prostate) was > 100 µM, the TGI (MDA-MB-435) was > 100 µM and the TGI (MDA-MB-231 breast) was > 100 µM. For the same compound, the TGI (T-47D breast) was > 100 µM and the TGI (MCF7 breast) was > 100 µM.
`NCCCNCCCNc1nc2ccccc2c2[nH]c3ccccc3c12` was tested, and the GI50 (DU-145 prostate) was 0.0756 µM, the TGI (DU-145 prostate) was 1.51 µM and the GI50 (MDA-MB-435) was 0.581 µM. For the same compound, the TGI (MDA-MB-435) was 2.08 µM, the GI50 (MDA-MB-231 breast) was 0.142 µM and the TGI (MDA-MB-231 breast) was 1.56 µM. For the same compound, the GI50 (T-47D breast) was 0.334 µM, the TGI (T-47D breast) was 2.69 µM and the GI50 (MCF7 breast) was 0.00804 µM. The TGI (MCF7 breast) was 1.85 µM.
For `C=C1C(=O)C23C(O)C1CCC2C12CO[C@]3(O)[C@@H](O)C1C(C)(C)CCC2O` (some centres undefined), the TGI (LXFL 529 NSCLC) was 6.03 µM, the TGI (XF 498 CNS) was 5.24 µM and the TGI (SNB-78 CNS) was 32.8 µM. For the same compound, the TGI (DMS 114 small cell lung) was 20.7 µM and the TGI (DMS 273 small cell lung) was 28.1 µM.
In the case of `Nc1nccc(C#Cc2cncnc2Nc2ccc(OCc3cccc(F)c3)c(Cl)c2)n1`, the GI50 (DU-145 prostate) is reported as 4.37 µM, the TGI (DU-145 prostate) is reported as 7.81 µM and the GI50 (MDA-MB-435) is reported as 5.36 µM. For the same compound, the TGI (MDA-MB-435) was > 23.8 µM, the GI50 (MDA-MB-231 breast) was 5.56 µM and the TGI (MDA-MB-231 breast) was 13.1 µM. It also gave a GI50 (T-47D breast) of 3.1 µM, a TGI (T-47D breast) of 8.03 µM and a GI50 (MCF7 breast) of 3.99 µM. It also gave a TGI (MCF7 breast) of 8.25 µM.
For `CC[C@]12C=CCN3CC[C@]4(C(=C(C(=O)OC)C1)Nc1ccccc14)[C@@H]32`, the GI50 (DU-145 prostate) was 3.81 µM, the TGI (DU-145 prostate) was 14.5 µM and the GI50 (MDA-MB-435) was 2.06 µM. It also gave a TGI (MDA-MB-435) of 5.63 µM, a GI50 (MDA-MB-231 breast) of 3.19 µM and a TGI (MDA-MB-231 breast) of 13.3 µM. It also gave a GI50 (T-47D breast) of 2.82 µM, a TGI (T-47D breast) of 15.9 µM and a GI50 (MCF7 breast) of 3.33 µM. The TGI (MCF7 breast) was 13.1 µM.
Work on `CC1(C)CC[C@]2(C(=O)O)CCC3(C)C(=CCC4[C@@]5(C)CC[C@H](OC6OCC(O)C(O)C6OC6OC(CO)C(O)C(O)C6O)C(C)(C)C5CC[C@]43C)C2C1` (some centres undefined) yielded a TGI (LXFL 529 NSCLC) of 3.39 µM, a TGI (XF 498 CNS) of 4.59 µM and a TGI (SNB-78 CNS) of 5.04 µM. The TGI (DMS 114 small cell lung) was 3.62 µM and the TGI (DMS 273 small cell lung) was 3.93 µM.
With `COc1cccc(C2C3=C(COC3=O)N(CCO)c3cc4c(cc32)CCC4)c1` (centres undefined) the GI50 (DU-145 prostate) was 0.0884 µM, the TGI (DU-145 prostate) was 0.321 µM and the GI50 (MDA-MB-435) was 0.0131 µM. The TGI (MDA-MB-435) was 0.0334 µM, the GI50 (MDA-MB-231 breast) was 0.142 µM and the TGI (MDA-MB-231 breast) was 1.07 µM. The GI50 (T-47D breast) was 0.0832 µM, the TGI (T-47D breast) was 36.6 µM and the GI50 (MCF7 breast) was 0.0193 µM. The TGI (MCF7 breast) was > 18.1 µM.
In the case of `COC(=O)[C@@]12C3=NO[C@]1(C(=O)OC)C(O[Si](C)(C)C(C)(C)C)C1OC(C)(C)OC1[C@@H]2[C@@H](OCc1ccccc1)CC3` (some centres undefined), the TGI (LXFL 529 NSCLC) is reported as > 100 µM, the TGI (DMS 114 small cell lung) is reported as > 100 µM and the TGI (DMS 273 small cell lung) is reported as > 100 µM.
For `COc1ccc(C=O)c(N(C)C(=O)C(C)(C)C)c1`, the TGI (XF 498 CNS) was > 100 µM, the TGI (SNB-78 CNS) was > 100 µM and the TGI (DMS 114 small cell lung) was > 100 µM. The TGI (DMS 273 small cell lung) was > 100 µM.
`COc1ccc(C(=O)Nc2ccccc2C#N)cc1` was tested, and the TGI (XF 498 CNS) was > 100 µM, the TGI (SNB-78 CNS) was > 100 µM and the TGI (DMS 273 small cell lung) was > 100 µM.
`Clc1ccc(C2=NN(c3ccccc3)C3c4cc(Br)ccc4OCC23)cc1` (centres undefined) was tested, and the TGI (LXFL 529 NSCLC) was > 100 µM, the TGI (XF 498 CNS) was > 100 µM and the TGI (SNB-78 CNS) was > 100 µM. For the same compound, the TGI (DMS 114 small cell lung) was > 100 µM and the TGI (DMS 273 small cell lung) was > 100 µM.
For `COC(=O)C1(c2ccc(OC)cc2)NC(c2ccccc2)C2C(=O)N(c3ccc(OC)cc3)C(=O)C21` (centres undefined), the TGI (LXFL 529 NSCLC) was > 100 µM, the TGI (XF 498 CNS) was > 100 µM and the TGI (SNB-78 CNS) was > 100 µM. For the same compound, the TGI (DMS 114 small cell lung) was > 100 µM and the TGI (DMS 273 small cell lung) was > 100 µM.
With `C[CH2][Sn]([CH2]C)([O]C(=O)c1cc(OC)c(OC)c(OC)c1)[O][Sn]([CH2]C)([CH2]C)[O]C(=O)c1cc(OC)c(OC)c(OC)c1` the GI50 (XF 498 CNS) was 16.9 µM, the TGI (XF 498 CNS) was 31.3 µM and the GI50 (SNB-78 CNS) was 17 µM. It also gave a TGI (SNB-78 CNS) of 41 µM, a GI50 (DMS 114 small cell lung) of 15.1 µM and a TGI (DMS 114 small cell lung) of 29.1 µM. For the same compound, the GI50 (DMS 273 small cell lung) was 84.5 µM and the TGI (DMS 273 small cell lung) was > 100 µM.
For `O=C1c2cccnc2-c2nc(-c3ccccc3)cc3c2c1nc1ccccc13`, the GI50 (DU-145 prostate) was 13.6 µM, the TGI (DU-145 prostate) was 30.2 µM and the GI50 (MDA-MB-435) was 1.53 µM. The TGI (MDA-MB-435) was 2.96 µM, the GI50 (MDA-MB-231 breast) was 4.33 µM and the TGI (MDA-MB-231 breast) was > 100 µM. It also gave a GI50 (T-47D breast) of 5.35 µM, a TGI (T-47D breast) of 44.3 µM and a GI50 (MCF7 breast) of 1.09 µM. It also gave a TGI (MCF7 breast) of 4.11 µM.
With `Cc1nc(N=C(N)N)nc2ccc3ccccc3c12` the GI50 (DU-145 prostate) was 1.53 µM, the TGI (DU-145 prostate) was 5.31 µM and the GI50 (MDA-MB-435) was 1.28 µM. The TGI (MDA-MB-435) was 2.77 µM, the GI50 (MDA-MB-231 breast) was 1.25 µM and the TGI (MDA-MB-231 breast) was 3.2 µM. For the same compound, the GI50 (T-47D breast) was 1.12 µM, the TGI (T-47D breast) was 7.24 µM and the GI50 (MCF7 breast) was 0.441 µM. The TGI (MCF7 breast) was 2.93 µM.
`S=c1nc(/C=C/c2ccc(Cl)c(Cl)c2)[nH][nH]1` was tested, and the GI50 (DU-145 prostate) was > 100 µM, the TGI (DU-145 prostate) was > 100 µM and the TGI (XF 498 CNS) was 95.5 µM. The GI50 (MDA-MB-435) was 86.7 µM, the TGI (MDA-MB-435) was > 100 µM and the GI50 (MDA-MB-231 breast) was 79 µM. The TGI (MDA-MB-231 breast) was > 100 µM, the TGI (DMS 114 small cell lung) was 0.12 µM and the TGI (DMS 273 small cell lung) was > 100 µM. The GI50 (T-47D breast) was 77.1 µM, the TGI (T-47D breast) was > 100 µM and the GI50 (MCF7 breast) was > 100 µM. For the same compound, the TGI (MCF7 breast) was > 100 µM.
For `CC1(C)CCC(CN2CCN(c3ccc(C(=O)NS(=O)(=O)c4ccc(NCC5CCOCC5)c([N+](=O)[O-])c4)c(Oc4cnc5[nH]ccc5c4)c3)CC2)=C(c2ccc(Cl)cc2)C1`, the GI50 (DU-145 prostate) was 4.47 µM, the TGI (DU-145 prostate) was 21.3 µM and the GI50 (MDA-MB-435) was 2.07 µM. For the same compound, the TGI (MDA-MB-435) was 5.38 µM, the GI50 (MDA-MB-231 breast) was 1.78 µM and the TGI (MDA-MB-231 breast) was 4 µM. The GI50 (T-47D breast) was 3.25 µM, the TGI (T-47D breast) was 18.9 µM and the GI50 (MCF7 breast) was 3.16 µM. For the same compound, the TGI (MCF7 breast) was 14.5 µM.
For `CC(=O)C(CN1CCOCC1)C(c1ccccc1)c1c(O)c2ccccc2oc1=O` (centres undefined), the TGI (DU-145 prostate) was > 100 µM, the TGI (MDA-MB-435) was > 100 µM and the TGI (MDA-MB-231 breast) was > 100 µM. The TGI (T-47D breast) was > 100 µM and the TGI (MCF7 breast) was > 100 µM.
With `c1ccc(COc2ccc(Nc3ncnc4ccc(-c5ccco5)cc34)cc2)cc1` the GI50 (DU-145 prostate) was 5.74 µM, the TGI (DU-145 prostate) was 24.6 µM and the GI50 (MDA-MB-435) was 6.83 µM. For the same compound, the TGI (MDA-MB-435) was 22.3 µM, the GI50 (MDA-MB-231 breast) was 5.49 µM and the TGI (MDA-MB-231 breast) was 13.7 µM. It also gave a GI50 (T-47D breast) of 4.09 µM, a TGI (T-47D breast) of 16.8 µM and a GI50 (MCF7 breast) of 0.572 µM. For the same compound, the TGI (MCF7 breast) was > 13.5 µM.
For `COc1ccc(C2=NN(c3ccc(S(N)(=O)=O)cc3)C(c3ccc(Cl)cc3)C2)c(O)c1` (centres undefined), the GI50 (DU-145 prostate) was 5.88 µM, the TGI (DU-145 prostate) was 20.7 µM and the GI50 (MDA-MB-435) was 3.26 µM. It also gave a TGI (MDA-MB-435) of 13.8 µM, a GI50 (MDA-MB-231 breast) of 9.89 µM and a TGI (MDA-MB-231 breast) of 27.4 µM. For the same compound, the GI50 (T-47D breast) was 2.4 µM, the TGI (T-47D breast) was 7.81 µM and the GI50 (MCF7 breast) was 2.08 µM. It also gave a TGI (MCF7 breast) of 8.66 µM.
`Cc1cc(N(CCC#N)CCC#N)ccc1N=Nc1ccc([N+](=O)[O-])cc1` was tested, and the TGI (SNB-78 CNS) was > 100 µM, the TGI (DMS 114 small cell lung) was 33 µM and the TGI (DMS 273 small cell lung) was 44.4 µM.
